# Laboratory results reported in PubChem BioAssay (NCI).
#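 Dose response: 5 concentrations. Exposure: 48 h. Format: 96-well plates. Endpoint: linear interpolation; highest concentration if not reached. Here, GI50 denotes the concentration required for 50% inhibition of growth. TGI is the concentration that stops growth completely.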
# What was measured:
# Test in all cases: NCI-60 cell line screen, 48 h
# TK-10 renal = system: TK-10 renal
# SW-620 colon = system: SW-620 colon
# HCT-116 colon = system: HCT-116 colon
# MDA-MB-435 = system: MDA-MB-435
# SF-295 CNS = system: SF-295 CNS
# ACHN renal = system: ACHN renal
# HL-60(TB) leukemia = system: HL-60(TB) leukemia
# MALME-3M melanoma = system: MALME-3M melanoma
# SNB-19 CNS = system: SNB-19 CNS
# A498 renal = system: A498 renal
SMILES,GI50 (TK-10 renal) [µM],TGI (TK-10 renal) [µM],GI50 (SW-620 colon) [µM],TGI (SW-620 colon) [µM],GI50 (HCT-116 colon) [µM],TGI (HCT-116 colon) [µM],GI50 (MDA-MB-435) [µM],TGI (MDA-MB-435) [µM],GI50 (SF-295 CNS) [µM],TGI (SF-295 CNS) [µM],GI50 (ACHN renal) [µM],TGI (ACHN renal) [µM],GI50 (HL-60(TB) leukemia) [µM],TGI (HL-60(TB) leukemia) [µM],GI50 (MALME-3M melanoma) [µM],TGI (MALME-3M melanoma) [µM],GI50 (SNB-19 CNS) [µM],TGI (SNB-19 CNS) [µM],GI50 (A498 renal) [µM],TGI (A498 renal) [µM]
CCN1C(=O)N(CC)C2C1NN=c1s/c(=C\c3ccccc3)c(=O)n12 (centres undefined),32.8,> 100,0.0808,> 100,0.0786,> 100,0.0316,0.109,0.0663,> 100,0.199,> 100,0.198,0.64,1.09,> 100,0.537,> 100,0.0238,0.147
COc1cc(/C=C/C(=O)c2ccc(Nc3nc(Nc4ccccc4)nc(Nc4ccc(Cl)cc4)n3)cc2)cc(OC)c1OC,19.1,> 32.5,8.46,> 32.5,2.68,> 32.5,11.3,> 32.5,7.22,> 32.5,10.8,> 32.5,1.18,11.3,9.71,> 32.5,> 32.5,> 32.5,28.2,> 32.5
CS[C@@]1(C(=O)Nc2ccc3[nH]nc(-c4ccc(OC(C)C)nc4)c3c2)CCN(CC(=O)N2CC=C(c3ccc(-c4ncn(C)n4)cc3)CC2)C1,0.237,> 100,0.201,> 100,0.161,> 100,0.355,> 100,> 27.3,> 100,37.8,> 100,0.0551,> 100,0.0155,0.105,> 100,> 100,0.176,0.641
CCS/C(Nc1ccccc1)=C(\C#N)C(=O)N/N=C/c1ccc(Cl)cc1Cl,10.2,> 100,4.65,> 100,2.99,> 100,0.419,2.23,2.89,> 100,7.08,> 100,3.2,> 100,9.3,> 100,4.17,> 100,1.87,37.8
Cc1ccc(-c2cc(/C=N/O)on2)cc1,63.8,> 100,65.7,> 100,71.4,> 100,52.1,> 100,33.9,> 100,54.8,> 100,26.5,> 100,> 100,> 100,> 100,> 100,41.3,> 100
CC(=O)N[C@@H](Cc1ccc(OP(=O)(O)O)cc1)C(=O)N[C@H]1CCC(=O)N2CCC[C@@H](C(=O)NCc3ccc(O)cc3)N2C1=O,> 25,> 25,> 25,> 25,> 25,> 25,> 25,> 25,> 25,> 25,> 25,> 25,> 25,> 25,> 25,> 25,> 25,> 25,> 25,> 25
O=C(Nc1ccc(S(=O)(=O)NC2CCCCCC2)cc1)C(c1ccccc1)S(=O)(=O)c1ccc(F)cc1 (centres undefined),0.331,3.66,0.084,1.98,0.185,1.7,0.313,1.43,0.349,2.92,0.153,0.491,0.357,2.51,0.25,1.81,0.622,37.2,0.87,2.08
C[C@@H](Oc1cc(-c2cnn(C3CC4(CCCNC4)C3)c2)cnc1N)c1c(Cl)ccc(F)c1Cl (some centres undefined),2.02,5.47,0.597,2.36,0.741,2.23,0.77,2.18,0.247,2.13,1.57,4.49,1.16,3.01,1.3,3.12,3.32,14.4,0.532,2.53
CC[C@H](C)[C@H](NC(=O)C12CC(NC(C)=O)(C1)C2)C(=O)N(C)[C@H](C[C@@H](OC(C)=O)c1nc(C(=O)N[C@@H](Cc2ccccc2)C[C@H](C)C(=O)OC)cs1)C(C)C,> 4.97,> 16.7,0.0854,> 16.7,0.101,> 16.7,0.033,0.501,0.36,> 5.25,1.13,> 16.7,0.0522,0.21,–,> 16.7,0.607,> 16.7,0.234,1.58
ClC1=C(Cl)C(Cl)=C(Cl)C1=Cc1ccc(Cl)cc1,0.331,0.899,0.241,0.68,0.237,0.638,0.507,2.95,2.27,8.85,0.327,1.07,1.21,5.86,1.42,3.6,1.07,2.42,1.6,3.17
C=C1C(=O)OC2CC3(C)OC3C3OC3C3=CC(OC3=O)C12 (centres undefined),1.91,3.39,1.35,3.04,1.67,3.15,9.57,29.3,37.4,> 100,1.81,3.35,2.13,4.83,2.12,4.19,> 100,> 100,15.8,30.5
CS(=O)(=O)c1nc(Cl)c(Cl)c(C#N)c1Cl,–,5.91,–,3.13,–,4.47,–,7,–,35.1,–,5.26,–,> 100,–,4.45,–,36,–,35.3
N#Cc1c(Oc2ccc(F)c(NC(=O)Cc3cccc(C(F)(F)F)c3)c2)ccc2nc(NC(=O)C3CC3)sc12,1.86,> 100,0.585,> 100,0.251,> 100,0.137,> 100,0.579,> 100,0.801,> 100,0.48,> 100,0.0101,0.0476,0.828,> 100,0.224,2.56
Cc1cccnc1CNC1CC(NCc2ncccc2C)CC(NCc2ncccc2C)C1 (centres undefined),3.49,11.3,2.04,5.8,1.63,3.24,4.16,10.7,3.12,8.6,3.22,11.2,2.47,5.98,2.84,9.46,2.04,4.03,1.78,3.3
CCCCCCC1N=C(N)N=C(N)N1c1ccc(Cl)cc1 (centres undefined),31.4,> 100,4.05,32.2,3.2,15.8,3.36,17.5,2.58,17.6,> 100,> 100,10.1,28.3,2.1,21,8.62,24.9,7.05,24.8
